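A five-concentration, 48-hour dose response in 96-well plates underlies each endpoint, interpolated linearly between surrounding concentrations. TGI denotes the concentration required for complete inhibition of growth.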
What was measured:
Assay in all cases: DTP human tumour cell line panel, 48 h
[1] = tested on: HCT-15 colon
[2] = tested on: CAKI-1 renal
[3] = tested on: A549 NSCLC
[4] = tested on: ACHN renal
[5] = tested on: HT29 colon
[6] = tested on: NCI-H23 lung
[7] = tested on: NCI-H226 lung
[8] = tested on: SW-620 colon
[9] = tested on: IGROV1 ovarian
[10] = tested on: SN12C renal
[11] = tested on: SK-MEL-28 melanoma
[12] = tested on: TK-10 renal
[13] = tested on: UACC-62 melanoma
[14] = tested on: SNB-75 CNS
[15] = tested on: LOX IMVI melanoma
[16] = tested on: MOLT-4 leukemia
[17] = tested on: SF-539 CNS
[18] = tested on: DMS 114 small cell lung
[19] = tested on: RPMI-8226 leukemia
[20] = tested on: SF-268 CNS
[21] = tested on: UO-31 renal
[22] = tested on: SR leukemia
[23] = tested on: K-562 leukemia
[24] = tested on: KM12 colon
[25] = tested on: OVCAR-3 ovarian
[26] = tested on: HCC-2998 colon
[27] = tested on: OVCAR-8 ovarian
[28] = tested on: SF-295 CNS
[29] = tested on: SK-MEL-5 melanoma
[30] = tested on: SK-MEL-2 melanoma
[31] = tested on: U251 CNS
[32] = tested on: OVCAR-4 ovarian
[33] = tested on: NCI-H460 lung
[34] = tested on: DLD-1 colon
[35] = tested on: SNB-19 CNS
[36] = tested on: 786-0 renal
[37] = tested on: M14 melanoma
[38] = tested on: HCT-116 colon
[39] = tested on: MALME-3M melanoma
[40] = tested on: SK-OV-3 ovarian
[41] = tested on: HOP-62 NSCLC
[42] = tested on: NCI-H522 lung
[43] = tested on: DMS 273 small cell lung
[44] = tested on: HL-60(TB) leukemia
[45] = tested on: LXFL 529 NSCLC
[46] = tested on: UACC-257 melanoma
[47] = tested on: OVCAR-5 ovarian
[48] = tested on: CCRF-CEM leukemia
[49] = tested on: M19-MEL melanoma
[50] = tested on: EKVX NSCLC
[51] = tested on: COLO 205 colon
[52] = tested on: A498 renal
[53] = tested on: HOP-18 NSCLC
[54] = tested on: SNB-78 CNS
[55] = tested on: RXF-631 renal
[56] = tested on: KM20L2 colon

In the case of `CCOC(=O)CC(NC(=O)c1[nH]cnc1/N=N/N(C)C)C(=O)OCC` (stereo not given), the TGI [1] is reported as over 100 µM, the TGI [2] is reported as over 100 µM and the TGI [3] is reported as over 100 µM. The TGI [4] was over 100 µM, the TGI [5] was over 100 µM and the TGI [6] was over 100 µM. The TGI [7] was over 100 µM, the TGI [8] was over 100 µM and the TGI [9] was over 100 µM. It also gave a TGI [10] of over 100 µM, a TGI [11] of over 100 µM and a TGI [12] of over 100 µM. It also gave a TGI [13] of over 100 µM, a TGI [14] of over 100 µM and a TGI [15] of over 100 µM. It also gave a TGI [16] of over 100 µM, a TGI [17] of over 100 µM and a TGI [18] of over 100 µM. The TGI [19] was over 100 µM, the TGI [20] was over 100 µM and the TGI [21] was over 100 µM. The TGI [22] was over 100 µM, the TGI [23] was over 100 µM and the TGI [24] was over 100 µM. For the same compound, the TGI [25] was over 100 µM, the TGI [26] was over 100 µM and the TGI [27] was over 100 µM. For the same compound, the TGI [28] was over 100 µM, the TGI [29] was over 100 µM and the TGI [30] was over 100 µM. The TGI [31] was over 100 µM, the TGI [32] was over 100 µM and the TGI [33] was over 100 µM. For the same compound, the TGI [34] was over 100 µM, the TGI [35] was over 100 µM and the TGI [36] was over 100 µM. For the same compound, the TGI [37] was over 100 µM, the TGI [38] was over 100 µM and the TGI [39] was over 100 µM. It also gave a TGI [40] of over 100 µM, a TGI [41] of over 100 µM and a TGI [42] of over 100 µM. It also gave a TGI [43] of over 100 µM, a TGI [44] of over 100 µM and a TGI [45] of over 100 µM. The TGI [46] was over 100 µM, the TGI [47] was over 100 µM and the TGI [48] was over 100 µM. For the same compound, the TGI [49] was over 100 µM, the TGI [50] was over 100 µM and the TGI [51] was over 100 µM. The TGI [52] was over 100 µM.

In the case of `O=C(/C=C\c1cccc2ccccc12)c1ccc(Cl)cc1Cl`, the TGI [1] is reported as 26.6 µM, the TGI [2] is reported as over 100 µM and the TGI [3] is reported as over 100 µM. For the same compound, the TGI [53] was 48.1 µM, the TGI [4] was 32.6 µM and the TGI [5] was 35.8 µM. It also gave a TGI [6] of over 100 µM, a TGI [7] of over 100 µM and a TGI [8] of 34.2 µM. For the same compound, the TGI [9] was over 100 µM, the TGI [10] was over 100 µM and the TGI [11] was 38.4 µM. It also gave a TGI [12] of over 100 µM, a TGI [13] of 34 µM and a TGI [14] of over 100 µM. For the same compound, the TGI [16] was 63.9 µM, the TGI [17] was 53.2 µM and the TGI [18] was 30.8 µM. For the same compound, the TGI [19] was 46.6 µM, the TGI [20] was 51.9 µM and the TGI [21] was over 100 µM. The TGI [23] was 38.6 µM, the TGI [24] was 31 µM and the TGI [25] was 43.5 µM. For the same compound, the TGI [26] was 92 µM, the TGI [27] was 37.3 µM and the TGI [28] was 49.9 µM. For the same compound, the TGI [54] was 45.5 µM, the TGI [29] was over 100 µM and the TGI [31] was 30.7 µM. For the same compound, the TGI [32] was over 100 µM, the TGI [33] was 51.6 µM and the TGI [55] was 74.3 µM. It also gave a TGI [34] of 40.8 µM, a TGI [35] of 72.9 µM and a TGI [36] of 33.1 µM. The TGI [37] was 41.3 µM, the TGI [38] was 33.6 µM and the TGI [39] was 65.6 µM. The TGI [40] was over 100 µM, the TGI [41] was over 100 µM and the TGI [42] was 35.1 µM. For the same compound, the TGI [43] was 34.8 µM, the TGI [44] was 41.1 µM and the TGI [45] was 32.8 µM. The TGI [46] was 75.3 µM, the TGI [47] was 72.3 µM and the TGI [48] was 42.1 µM. For the same compound, the TGI [49] was 35.9 µM, the TGI [50] was over 100 µM and the TGI [56] was 91.8 µM. It also gave a TGI [51] of 45.5 µM and a TGI [52] of over 100 µM.

— PubChem BioAssay (NCI)
